From US8735414B2 (priority 2009, dated 2014)

Key:
[1] = system: bicistronic HCV replicon (replicon RNA, GenBank Accession No. AJ242654); assay: HCV Replicon Assay; format: cell-based; details: Hepatitis C virus, 72 h, read-out: Replicon IC50

Row | SMILES | IC50 [1] | melting point
1 | C[C@H](NS(=O)(=O)c1cnc(-c2c(C#N)c3ccc(Cl)cc3n2C2CCCCC2)nc1)C(F)(F)F [compound 516, 2-(6-chloro-3-cyano-1-cyclohexyl-1H-indol-2-yl)-N-[(2S)-1,1,1-trifluoropropan-2-yl]pyrimidine-5-sulfonamide] | < 0.5 µM | 215 to 220 °C
2 | COc1ccc2c(C#N)c(-c3ncc(S(=O)(=O)N[C@@H](C)C4CC4)cn3)n(C3CCC3)c2c1 [compound 205, 2-(3-cyano-1-cyclobutyl-6-methoxy-1H-indol-2-yl)-N-[(1S)-1-cyclopropylethyl]pyrimidine-5-sulfonamide] | < 0.5 µM | 204 to 206 °C
3 | COc1ccnc(-n2c(-c3ccc(S(=O)(=O)N[C@@H](C)C(F)(F)F)cn3)c(C(N)=O)c3cc(F)c(C)cc32)n1 [compound 906, 5-fluoro-1-(4-methoxypyrimidin-2-yl)-6-methyl-2-(5-{[(2S)-1,1,1-trifluoropropan-2-yl]sulfamoyl}pyridin-2-yl)-1H-indole-3-carboxamide] | < 0.5 µM | 167 to 174 °C
4 | N#Cc1c(-c2ccc(S(=O)(=O)NC(CF)CF)cn2)n(C2CCC2)c2cc(N3CCOCC3)ccc12 [compound 322, 6-[3-cyano-1-cyclobutyl-6-(morpholin-4-yl)-1H-indol-2-yl]-N-(1,3-difluoropropan-2-yl)pyridine-3-sulfonamide] | 2 to 5 µM | 241 to 242 °C
5 | Cc1ccc2c(C#N)c(-c3ccc(S(=O)(=O)NC4(C(F)(F)F)CC4)cn3)n(C3CCCC3)c2c1 [compound 190, 6-(3-cyano-1-cyclopentyl-6-methyl-1H-indol-2-yl)-N-[1-(trifluoromethyl)cyclopropyl]pyridine-3-sulfonamide] | < 0.5 µM | 199 to 210 °C
6 | Cc1cc2c(cc1F)c(C#N)c(-c1ccc(S(=O)(=O)NC3(C)CC3)cn1)n2C1CCCC1 [compound 645, 6-(3-cyano-1-cyclopentyl-5-fluoro-6-methyl-1H-indol-2-yl)-N-(1-methylcyclopropyl)pyridine-3-sulfonamide] | < 0.5 µM | 208 to 209 °C
7 | CC(C)n1c(-c2ncc(S(=O)(=O)NC(CF)CF)cn2)c(C#N)c2ccc(F)cc21 [compound 165, 2-[3-cyano-6-fluoro-1-(propan-2-yl)-1H-indol-2-yl]-N-(1,3-difluoropropan-2-yl)pyrimidine-5-sulfonamide] | 0.5 to 2 µM | 149 to 150 °C
8 | CCc1cc2c(cc1F)c(C(N)=O)c(-c1ccc(S(=O)(=O)N[C@@H](C)C(F)(F)F)cn1)n2-c1cccc(F)n1 [compound 995, 6-ethyl-5-fluoro-1-(6-fluoropyridin-2-yl)-2-(5-{[(2S)-1,1,1-trifluoropropan-2-yl]sulfamoyl}pyridin-2-yl)-1H-indole-3-carboxamide] | < 0.5 µM | 230 to 233 °C
9 | N#Cc1c(-c2ccc(S(=O)(=O)NC(CF)CF)cn2)n(C2CCC2)c2ccc(OC(F)(F)F)cc12 [compound 25, 6-[3-cyano-1-cyclobutyl-5-(trifluoromethoxy)-1H-indol-2-yl]-N-(1,3-difluoropropan-2-yl)pyridine-3-sulfonamide] | 0.5 to 2 µM | 179 to 182 °C
10 | C[C@H](NS(=O)(=O)c1cnc(-c2c(C#N)c3ccc(CC(F)F)cc3n2CC2CC2)nc1)C(F)(F)F [compound 622, 2-[3-cyano-1-(cyclopropylmethyl)-6-(2,2-difluoroethyl)-1H-indol-2-yl]-N-[(2S)-1,1,1-trifluoropropan-2-yl]pyrimidine-5-sulfonamide] | < 0.5 µM | 195 to 205 °C
11 | C[C@H](NS(=O)(=O)c1ccc(-c2c(C#N)c3ccc(OC(F)(F)F)cc3n2CC2CC2)nc1)C1CC1 [compound 309, 6-[3-cyano-1-(cyclopropylmethyl)-6-(trifluoromethoxy)-1H-indol-2-yl]-N-[(1S)-1-cyclopropylethyl]pyridine-3-sulfonamide] | < 0.5 µM | 115 to 117 °C
12 | Cc1cc2c(cc1F)cc(-c1ccc(S(=O)(=O)N[C@@H](C)C(F)(F)F)cn1)n2-c1nccs1 [compound 903, 6-[5-fluoro-6-methyl-1-(1,3-thiazol-2-yl)-1H-indol-2-yl]-N-[(2S)-1,1,1-trifluoropropan-2-yl]pyridine-3-sulfonamide] | < 0.5 µM | 224 to 230 °C
13 | Cc1cc2c(cc1F)c(C(N)=O)c(-c1ccc(S(=O)(=O)N[C@H](C)C(F)(F)F)cn1)n2C1CCOCC1 [compound 767, 5-fluoro-6-methyl-1-(tetrahydro-2H-pyran-4-yl)-2-(5-{[(2R)-1,1,1-trifluoropropan-2-yl]sulfamoyl}pyridin-2-yl)-1H-indole-3-carboxamide] | < 0.5 µM | 258 to 262 °C
14 | CCn1c(-c2ncc(S(=O)(=O)NC(C)C)cn2)c(C#N)c2cc(OC(F)F)ccc21 [compound 242, 2-[3-cyano-5-(difluoromethoxy)-1-ethyl-1H-indol-2-yl]-N-(propan-2-yl)pyrimidine-5-sulfonamide] | 0.5 to 2 µM | 180 to 185 °C
15 | N#Cc1c(-c2ccc(S(=O)(=O)NC(CF)CF)cn2)n(C2CCC2)c2cc(C3CC3)c(F)cc12 [compound 107, 6-(3-cyano-1-cyclobutyl-6-cyclopropyl-5-fluoro-1H-indol-2-yl)-N-(1,3-difluoropropan-2-yl)pyridine-3-sulfonamide] | < 0.5 µM | 182 to 186 °C
16 | CC(C)(C)S(=O)(=O)Nc1ccc(-c2c(C(N)=O)c3cc(F)c(C4CC4)cc3n2-c2ccccc2)cn1 [compound 1100, 2-{6-[(tert-butylsulfonyl)amino]pyridin-3-yl}-6-cyclopropyl-5-fluoro-1-phenyl-1H-indole-3-carboxamide] | < 0.5 µM | 272 to 274 °C
17 | C[C@@H](NS(=O)(=O)c1ccc(-c2c(C#N)c3cc(F)ccc3n2-c2ncccn2)nc1)C(F)(F)F [compound 673, 6-[3-cyano-5-fluoro-1-(pyrimidin-2-yl)-1H-indol-2-yl]-N-[(2R)-1,1,1-trifluoropropan-2-yl]pyridine-3-sulfonamide] | < 0.5 µM | 202 to 205 °C
18 | CC(C)(NS(=O)(=O)c1ccc(-c2c(C#N)c3ccc(OC(F)F)cc3n2-c2ccc(F)cc2)nc1)C(F)(F)F [compound 687, 6-[3-cyano-6-(difluoromethoxy)-1-(4-fluorophenyl)-1H-indol-2-yl]-N-(1,1,1-trifluoro-2-methylpropan-2-yl)pyridine-3-sulfonamide] | < 0.5 µM | 215 to 216 °C
19 | CC(C)(C)NS(=O)(=O)c1ccc(-c2c(C#N)c3cc(F)c(C4CC4)cc3n2-c2ccccc2)nc1 [compound 1117, N-tert-butyl-6-(3-cyano-6-cyclopropyl-5-fluoro-1-phenyl-1H-indol-2-yl)pyridine-3-sulfonamide] | < 0.5 µM | 219.2 to 220.8 °C
20 | C[C@H](NS(=O)(=O)c1cnc(-c2c(C#N)c3ccc(OC(F)F)cc3n2C2CCCC2)nc1)C(F)(F)F [compound 326, 2-[3-cyano-1-cyclopentyl-6-(difluoromethoxy)-1H-indol-2-yl]-N-[(2S)-1,1,1-trifluoropropan-2-yl]pyrimidine-5-sulfonamide] | < 0.5 µM | 231 to 232 °C
21 | Cc1c(F)cc2c(C#N)c(-c3ccc(S(=O)(=O)NC4(C(F)(F)F)CC4)cn3)n(C3CCCC3)c2c1F [compound 654, 6-(3-cyano-1-cyclopentyl-5,7-difluoro-6-methyl-1H-indol-2-yl)-N-[1-(trifluoromethyl)cyclopropyl]pyridine-3-sulfonamide] | < 0.5 µM | 241 to 246 °C
22 | Cc1ccc2c(c1)c(C#N)c(-c1ccc(S(=O)(=O)N[C@@H](C)C(F)(F)F)cn1)n2-c1ccccn1 [compound 503, 6-[3-cyano-5-methyl-1-(pyridin-2-yl)-1H-indol-2-yl]-N-[(2S)-1,1,1-trifluoropropan-2-yl]pyridine-3-sulfonamide] | 0.5 to 2 µM | 165 to 167 °C
23 | Cc1cc2c(C#N)c(-c3ccc(S(=O)(=O)N[C@@H](C)C(F)(F)F)cn3)n(C3CCCC3)c2cc1F [compound 483, 6-(3-cyano-1-cyclopentyl-6-fluoro-5-methyl-1H-indol-2-yl)-N-[(2S)-1,1,1-trifluoropropan-2-yl]pyridine-3-sulfonamide] | < 0.5 µM | 219 to 223 °C
24 | Cc1cc2c(C#N)c(-c3ccc(S(=O)(=O)N[C@@H](C)C(F)(F)F)cn3)n(C3CCC3)c2cc1OC(F)F [compound 660, 6-[3-cyano-1-cyclobutyl-6-(difluoromethoxy)-5-methyl-1H-indol-2-yl]-N-[(2S)-1,1,1-trifluoropropan-2-yl]pyridine-3-sulfonamide] | < 0.5 µM | 168 to 170 °C
25 | N#Cc1c(-c2ncc(S(=O)(=O)NC(CF)CF)cn2)n(C2CCCCC2)c2cc(C3CC3)ccc12 [compound 193, 2-(3-cyano-1-cyclohexyl-6-cyclopropyl-1H-indol-2-yl)-N-(1,3-difluoropropan-2-yl)pyrimidine-5-sulfonamide] | < 0.5 µM | > 200 °C (dec.)
26 | CC(C)n1c(-c2ncc(S(=O)(=O)N[C@@H](C)C3CC3)cn2)c(C#N)c2ccc(OC(F)F)cc21 [compound 207, 2-[3-cyano-6-(difluoromethoxy)-1-(propan-2-yl)-1H-indol-2-yl]-N-[(1S)-1-cyclopropylethyl]pyrimidine-5-sulfonamide] | 0.5 to 2 µM | 169 to 170 °C
27 | Cc1cc2cc(-c3ccc(S(=O)(=O)N[C@@H](C)C(F)(F)F)cn3)n(C3CCC3)c2cc1OC(F)F [compound 646, 6-[1-cyclobutyl-6-(difluoromethoxy)-5-methyl-1H-indol-2-yl]-N-[(2S)-1,1,1-trifluoropropan-2-yl]pyridine-3-sulfonamide] | 2 to 5 µM | 151 to 153 °C
28 | Cc1ccc2c(c1)c(C#N)c(-c1ccc(S(=O)(=O)NC3(C(F)(F)F)CC3)cn1)n2C1CCC1 [compound 328, 6-(3-cyano-1-cyclobutyl-5-methyl-1H-indol-2-yl)-N-[1-(trifluoromethyl)cyclopropyl]pyridine-3-sulfonamide] | < 0.5 µM | 193 to 199 °C
